Measurements as given in US6908919B2, “Substituted polycyclic aryl and heteroaryl pyrazinones useful for selective inhibition of the coagulation cascade” (Pharmacia Corporation, priority 1999, dated 2005).

Biological target: Human factor Xa (Homo sapiens, UniProt P00742)
Assay: Xa Assay
Assay type: biochemical
Design: purchased Enzyme Research Laboratories, South Bend Ind

Chain of Human factor Xa (P00742 41-179 limits assumed): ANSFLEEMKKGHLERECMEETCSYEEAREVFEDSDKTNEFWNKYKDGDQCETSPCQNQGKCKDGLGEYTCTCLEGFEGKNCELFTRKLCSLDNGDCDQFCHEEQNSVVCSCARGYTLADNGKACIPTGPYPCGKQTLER
Chain of Human factor Xa (P00742 235-488 limits assumed): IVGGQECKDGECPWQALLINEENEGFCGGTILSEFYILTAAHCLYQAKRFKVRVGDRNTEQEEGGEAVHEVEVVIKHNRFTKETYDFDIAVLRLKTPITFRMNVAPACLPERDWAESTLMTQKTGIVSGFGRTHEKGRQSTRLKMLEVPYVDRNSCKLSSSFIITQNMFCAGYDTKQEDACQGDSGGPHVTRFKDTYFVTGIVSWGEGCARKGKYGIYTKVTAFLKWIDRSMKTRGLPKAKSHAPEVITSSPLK

% Inhibition Factor Xa (30 µM) (at 30 µM inhibitor) | Structure (SMILES) | also measured
16% | N=C(N)c1ccc(CNC(=O)Cn2c(-c3cccc(Cl)c3)c(Cl)nc(NCc3ccncc3)c2=O)cc1 [1471-27] | –
2% | CCc1c(Cl)nc(NCCc2cccnc2)c(=O)n1CC(=O)NCc1ccc(C(=N)N)cc1 [1471-64] | –
0% | N=C(N)c1ccc(CNC(=O)Cn2c(-c3ccccc3O)c(Cl)nc(NC3CCC3)c2=O)cc1 [Example 66] | –
7% | CCCCNc1nc(Cl)c(-c2ccccc2)n(CC(=O)NCc2ccc(C(=N)N)cc2)c1=O [1512-14] | –
– | N=C(N)c1ccc(CNC(=O)Cn2c(-c3ccsc3)c(Cl)nc(NCCc3ccccc3)c2=O)cc1 [Example 1517-13] | % Inhibition Factor Xa (30 µM) (at 30 µM): 0%
27% | Cc1c(Cl)nc(NCCc2cccnc2)c(=O)n1CC(=O)NCc1ccc(C(=N)N)cc1 [1471-8] | –
26% | N=C(N)c1ccc(CNC(=O)Cn2c(-c3ccc(Cl)cc3)c(Cl)nc(NCCc3ccc(Cl)cc3)c2=O)cc1 [1471-18] | –
– | C[C@H](C(=O)NCc1ccc(C(=N)N)cc1)n1c(-c2ccccc2)c(Cl)nc(NCCc2ccccc2)c1=O [Example 1517-17] | % Inhibition Factor Xa (30 µM) (at 30 µM): 0%
– | N=C(N)c1ccc(CNC(=O)Cn2c(-c3cccc(N)c3)c(Cl)nc(NCCN3CCCCC3)c2=O)cc1 [1543-15] | % Inhibition Factor Xa (30 µM) (at 30 µM): 41%
0% | Nc1n[nH]c2cc(CNC(=O)Cn3c(-c4ccccc4)cnc(NCCc4ccccc4)c3=O)ccc12 [Example 39] | –
10% | CN1CCCC1CCNc1nc(Cl)c(-c2ccccc2)n(CC(=O)NCc2ccc(C(=N)N)cc2)c1=O (stereo not shown) [1512-46] | –
– | C[Si](C)(C)CNc1nc(Cl)c(-c2ccccc2)n(CC(=O)NCc2ccc(C(=N)N)cc2)c1=O [Example 1517-36] | % Inhibition Factor Xa (30 µM) (at 30 µM): 0%
10% | Cc1c(Cl)nc(NCCc2ccc(Cl)cc2)c(=O)n1CC(=O)NCc1ccc(C(=N)N)cc1 [1471-2] | –
– | CC(C)(C)CCNc1nc(Cl)c(-c2ccccc2)n(CC(=O)NCc2ccc(C(=N)N)cc2)c1=O [Example 1517-41] | % Inhibition Factor Xa (30 µM) (at 30 µM): 0%
5% | N=C(N)c1ccc(CNC(=O)Cn2c(-c3ccccc3)c(Cl)nc(NCc3ccc(C(F)(F)F)cc3F)c2=O)cc1 [1512-26] | –
4% | N=C(N)c1ccc(CNC(=O)Cn2c(-c3ccccc3)c(Cl)nc(NCC3COc4ccccc4O3)c2=O)cc1 (stereo not shown) [1512-01] | –
0% | Cc1c(Cl)nc(NCCN2CCOCC2)c(=O)n1CC(=O)NCc1ccc(C(=N)N)cc1 [1471-4] | –
6% | CN(C)CCNc1nc(Cl)c(-c2ccccc2)n(CC(=O)NCc2ccc(C(=N)N)cc2)c1=O [1512-15] | –
– | N=C(N)c1ccc(CNC(=O)Cn2c(-c3cccc(N)c3)c(Cl)nc(NCCCO)c2=O)cc1 [1543-13] | % Inhibition Factor Xa (30 µM) (at 30 µM): 12%
– | N=C(N)c1ccc(CNC(=O)Cn2c(-c3ccsc3)c(Cl)nc(NCCc3cccc(Cl)c3)c2=O)cc1 [Example 1517-19] | % Inhibition Factor Xa (30 µM) (at 30 µM): 0%
28% | N=C(N)c1ccc(CNC(=O)Cn2c(-c3ccccc3)c(Cl)nc(NC(c3ccccc3)c3ccccc3)c2=O)cc1 [1507-35] | –
9% | N=C(N)c1ccc(CNC(=O)Cn2c(-c3ccccc3)c(Cl)nc(NCc3ccncc3)c2=O)cc1 [1471-11] | –
4% | N=C(N)c1ccc(CNC(=O)Cn2c(-c3ccccc3)c(Cl)nc(NC3CCCCCC3)c2=O)cc1 [1507-29] | –

% Inhibition Factor Xa (30 µM) (at 30 µM inhibitor) | Structure (SMILES) | also measured
0% | C[C@@H](C(=O)NCc1ccc(C(=N)N)cc1)n1c(-c2ccccc2)c(Cl)nc(NCc2ccccc2)c1=O [Example 1517-03] | –
4% | Cc1c(Cl)nc(NCCc2ccccc2)c(=O)n1CC(=O)NCc1ccc(C(=N)N)cc1 [1471-7] | –
– | CCCNc1nc(Cl)c(-c2ccccc2)n(CC(=O)NCc2ccc(C(=N)N)cc2)c1=O [Example 1517-33] | % Inhibition Factor Xa (30 µM) (at 30 µM): 0%
0% | CC(C)Nc1nc(Cl)c(-c2cccc(N)c2)n(CC(=O)NCc2ccc(C(=N)N)c(F)c2)c1=O [Example 42] | –
13% | N=C(N)c1ccc(CNC(=O)Cn2c(-c3ccccc3)c(Cl)nc(NCCc3ccccn3)c2=O)cc1 [1512-47] | –
1% | N=C(N)c1ccc(CNC(=O)Cn2c(-c3ccccc3)c(Cl)nc(NCc3ccccc3OC(F)(F)F)c2=O)cc1 [1512-42] | –
0% | CCc1c(Cl)nc(NCc2ccncc2)c(=O)n1CC(=O)NCc1ccc(C(=N)N)cc1 [1471-59] | –
0% | CCc1c(Cl)nc(NCCN2CCOCC2)c(=O)n1CC(=O)NCc1ccc(C(=N)N)cc1 [1471-60] | –
4% | N=C(N)c1ccc(CNC(=O)Cn2c(-c3ccccc3)c(Cl)nc(NCCCN3CCCC3=O)c2=O)cc1 [1507-19] | –
13% | N=C(N)c1ccc(CNC(=O)Cn2c(-c3ccccc3)c(Cl)nc(NCC(c3ccccc3)c3ccccc3)c2=O)cc1 [1507-09] | –
28% | N=C(N)c1ccc(CNC(=O)Cn2c(-c3ccc(Cl)cc3)c(Cl)nc(NCCc3cccc(Cl)c3)c2=O)cc1 [1471-22] | –
5% | N=C(N)c1ccc(CNC(=O)Cn2c(-c3ccccc3)c(Cl)nc(NCc3cc(F)c(F)c(F)c3)c2=O)cc1 [1512-32] | –
– | CC(C)Nc1nc(Cl)c(-c2cccc(N)c2)n(CC(=O)NCc2ccc(C(=N)N)cc2F)c1=O [1543-40] | % Inhibition Factor Xa (30 µM) (at 30 µM): 10%
0% | CSc1ccc(N)cc1-c1c(Cl)nc(NC(C)C)c(=O)n1CC(=O)NCc1ccc(C(=N)N)cc1 [Example 76] | –
– | CCNc1nc(Cl)c(-c2cccc(N)c2)n(CC(=O)NCc2ccc(C(=N)N)cc2F)c1=O [1543-31] | % Inhibition Factor Xa (30 µM) (at 30 µM): 8%
22% | Nc1n[nH]c2ccc(CNC(=O)Cn3c(-c4ccccc4)cnc(NCCc4ccccc4)c3=O)cc12 [Example 38] | –
9% | N=C(N)c1ccc(CNC(=O)Cn2c(-c3ccccc3)c(Cl)nc(NCc3c(F)cccc3F)c2=O)cc1 [1512-43] | –
0% | C[C@H](C(=O)NCc1ccc(C(=N)N)cc1)n1c(-c2ccccc2)c(Cl)nc(NCc2ccccc2)c1=O [Example 1517-05] | –
10% | N=C(N)c1ccc(CNC(=O)Cn2c(-c3ccccc3)c(Cl)nc(NCCCn3ccnc3)c2=O)cc1 [1507-05] | –
42% @ 30 | Cc1cccc(-c2cnc(NCCc3ccccc3)c(=O)n2CC(=O)NCc2ccc(C(=N)N)cc2)c1 [Example 85] | –
– | C[C@H](C(=O)NCc1ccc(C(=N)N)cc1)n1c(-c2ccccc2)c(Cl)nc(NCCc2cccc(Cl)c2)c1=O [Example 1517-23] | % Inhibition Factor Xa (30 µM) (at 30 µM): 0%
0% | CSCC(C(=O)NCc1ccc(C(=N)N)cc1)n1c(-c2ccccc2)c(Cl)nc(NC2CCC2)c1=O (stereo not shown) [Example 1517-10] | –
38% @ 30 | N=C(N)c1ccc(CNC(=O)Cn2c(-c3cccc(Cl)c3)c(Cl)nc(NCc3ccccc3)c2=O)cc1 [Example 23] | –

% Inhibition Factor Xa (30 µM) (at 30 µM inhibitor) | Structure (SMILES) | also measured
– | CSCC(C(=O)NCc1ccc(C(=N)N)cc1)n1c(-c2ccccc2)c(Cl)nc(NCCc2ccccc2)c1=O (stereo not shown) [Example 1517-16] | % Inhibition Factor Xa (30 µM) (at 30 µM): 0%
– | N=C(N)c1ccc(CNC(=O)Cn2c(-c3cccc(N)c3)c(Cl)nc(NC3CCCC3)c2=O)c(F)c1 [1543-34] | % Inhibition Factor Xa (30 µM) (at 30 µM): 20%
4% | N=C(N)c1ccc(CNC(=O)Cn2c(-c3ccccc3)c(Cl)nc(NCc3cc(Cl)ccc3Cl)c2=O)cc1 [1512-35] | –
0% | C[C@@H](C(=O)NCc1ccc(C(=N)N)cc1)n1c(-c2ccccc2)c(Cl)nc(NC2CCC2)c1=O [Example 1517-09] | –
19% | CN(C)CCCNc1nc(Cl)c(-c2ccccc2)n(CC(=O)NCc2ccc(C(=N)N)cc2)c1=O [1507-47] | –
10% | CC(C)Nc1nc(Cl)c(-c2cccc(N)c2)n(CC(=O)NCCc2ccc(C(=N)N)cc2)c1=O [Example 62] | –
– | N=C(N)c1ccc(CNC(=O)Cn2c(-c3c(Cl)cccc3Cl)c(Cl)nc(NCCc3cccc(Cl)c3)c2=O)cc1 [Example 1517-24] | % Inhibition Factor Xa (30 µM) (at 30 µM): 0%
18% @ 30 | N=C(N)c1ccc(CNC(=O)Cn2c(-c3cccc(N)c3)cnc(NC3CCC3)c2=O)cc1 [Example 92] | –
0% | N=C(N)c1ccc(CNC(=O)Cn2c(-c3ccccc3)c(Cl)nc(NC3CCS(=O)(=O)C3)c2=O)cc1 (stereo not shown) [1507-36] | –
0% | CC(C)Nc1ncc(-c2cccc(N)c2)n(CC(=O)NCc2ccc(C(=N)N)c(F)c2)c1=O [Example 43] | –
21% | N=C(N)c1ccc(CNC(=O)Cn2c(-c3cccc(Cl)c3)c(Cl)nc(NCCc3ccncc3)c2=O)cc1 [1471-29] | –
11% | N=C(N)c1ccc(CNC(=O)Cn2c(-c3ccccc3)c(Cl)nc(NCc3cc(C(F)(F)F)cc(C(F)(F)F)c3)c2=O)cc1 [1507-40] | –
18% | N=C(N)c1ccc(CNC(=O)Cn2c(-c3ccccc3)c(Cl)nc(NC3CCCc4ccccc43)c2=O)cc1 (stereo not shown) [1507-16] | –
– | N=C(N)c1ccc(CNC(=O)Cn2c(-c3cccc(N)c3)c(Cl)nc(NCCCCN3CCCC3)c2=O)cc1 [1543-21] | % Inhibition Factor Xa (30 µM) (at 30 µM): 27%
– | CNc1nc(Cl)c(-c2cccc(N)c2)n(CC(=O)NCc2ccc(C(=N)N)cc2)c1=O [1543-05] | % Inhibition Factor Xa (30 µM) (at 30 µM): 14%
0% | N=C(N)c1ccc(CNC(=O)Cn2c(-c3ccsc3)c(Cl)nc(NC3CCC3)c2=O)cc1 [Example 1517-07] | –
– | N=C(N)c1ccc(CNC(=O)Cn2c(-c3ccccc3)c(Cl)nc(NC3CCCCC3)c2=O)cc1 [Example 1517-25] | % Inhibition Factor Xa (30 µM) (at 30 µM): 0%
– | CC(C)N(C)c1nc(Cl)c(-c2ccccc2)n(CC(=O)NCc2ccc(C(=N)N)cc2)c1=O [Example 1517-31] | % Inhibition Factor Xa (30 µM) (at 30 µM): 0%
15% | N=C(N)c1ccc(CNC(=O)Cn2c(-c3ccc4c(c3)OCO4)c(Cl)nc(NCCc3ccc(Cl)cc3)c2=O)cc1 [1471-42] | –
– | O=C(Cn1c(-c2ccc(-c3ccccc3)cc2)c(Cl)nc(NCCc2cccc(Cl)c2)c1=O)NCCc1cccnc1 [Example E-0116] | % Inhibition Factor Xa (100 µM): 4%
– | CCCCCNc1nc(Cl)c(-c2ccccc2)n(CC(=O)NCc2ccc(C(=N)N)cc2)c1=O [Example 1517-48] | % Inhibition Factor Xa (30 µM) (at 30 µM): 0%
